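In this assay, cells in 96-well plates receive the compound at five concentrations for 48 hours. Endpoints are linearly interpolated between the surrounding concentrations. GI50 = concentration required for 50% inhibition of growth. TGI: total growth inhibition.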
Tests used:
Assay in all cases: inhibition of tumour cell growth, NCI panel, 48 h
[1] = tested on: 786-0 renal
[2] = tested on: A549 NSCLC
[3] = tested on: ACHN renal
[4] = tested on: BT-549 breast
[5] = tested on: CAKI-1 renal
[6] = tested on: CCRF-CEM leukemia
[7] = tested on: COLO 205 colon
[8] = tested on: DU-145 prostate
[9] = tested on: EKVX NSCLC
[10] = tested on: HCC-2998 colon
[11] = tested on: HCT-116 colon
[12] = tested on: HCT-15 colon
[13] = tested on: HL-60(TB) leukemia
[14] = tested on: HOP-62 NSCLC
[15] = tested on: HOP-92 NSCLC
[16] = tested on: HS 578T breast
[17] = tested on: HT29 colon
[18] = tested on: IGROV1 ovarian
[19] = tested on: KM12 colon
[20] = tested on: LOX IMVI melanoma
[21] = tested on: M14 melanoma
[22] = tested on: MALME-3M melanoma
[23] = tested on: MCF7 breast
[24] = tested on: MDA-MB-231 breast
[25] = tested on: MDA-MB-435
[26] = tested on: MOLT-4 leukemia
[27] = tested on: NCI-H226 lung
[28] = tested on: NCI-H23 lung

`CCCCCCC/C(=N\N=C(N)N)c1ccc(O)cc1` gave a GI50 [1] of 2.16 µM, a TGI [1] of 5.31 µM and a GI50 [2] of 2.88 µM. The TGI [2] was 17.2 µM, the GI50 [3] was 2.25 µM and the TGI [3] was 5.13 µM. For the same compound, the GI50 [4] was 2.41 µM, the TGI [4] was 8.65 µM and the GI50 [5] was 2.8 µM. For the same compound, the TGI [5] was 11.8 µM, the GI50 [6] was 1.96 µM and the TGI [6] was 5.77 µM. For the same compound, the GI50 [7] was 1.74 µM, the TGI [7] was 3.16 µM and the GI50 [8] was 3.15 µM. It also gave a TGI [8] of 11 µM, a GI50 [9] of 2.71 µM and a TGI [9] of 14 µM. For the same compound, the GI50 [10] was 1.62 µM, the TGI [10] was 3 µM and the GI50 [11] was 1.67 µM. It also gave a TGI [11] of 3.41 µM, a GI50 [12] of 3.48 µM and a TGI [12] of 12.9 µM. For the same compound, the GI50 [13] was 1.75 µM, the TGI [13] was 3.65 µM and the GI50 [14] was 1.81 µM. The TGI [14] was 3.81 µM, the GI50 [15] was 0.692 µM and the TGI [15] was 3.19 µM. It also gave a GI50 [16] of 3.14 µM, a TGI [16] of 24.7 µM and a GI50 [17] of 2.35 µM. For the same compound, the TGI [17] was 6.25 µM, the GI50 [18] was 2.28 µM and the TGI [18] was 10.7 µM. For the same compound, the GI50 [19] was 1.73 µM, the TGI [19] was 3.52 µM and the GI50 [20] was 1.62 µM. For the same compound, the TGI [20] was 2.97 µM, the GI50 [21] was 1.71 µM and the TGI [21] was 3.18 µM. It also gave a GI50 [22] of 1.77 µM, a TGI [22] of 3.52 µM and a GI50 [23] of 1.71 µM. For the same compound, the TGI [23] was 4.43 µM, the GI50 [24] was 1.67 µM and the TGI [24] was 3.54 µM. For the same compound, the GI50 [25] was 1.71 µM, the TGI [25] was 3.44 µM and the GI50 [26] was 1.67 µM. For the same compound, the TGI [26] was 4.76 µM, the GI50 [27] was 2.2 µM and the TGI [27] was 6.63 µM. The GI50 [28] was 2.6 µM and the TGI [28] was 10.9 µM.

From PubChem BioAssay (NCI)
